Results on 47 compounds are retold here after US20240368096A1 (Enanta Pharmaceuticals, Inc., priority 2022, published 2024).

For this assay, the system named is HBV. Kind of assay: HBV infection in HepG2-NTCP cells (HBeAg AlphaLISA in supernatants). The class given is cell-based. The conditions noted are these: Hepatitis B virus, 192 h; HBV infection of HepG2-NTCP cells; HBeAg in supernatants at day 8 post infection; read-out: Cellular EC50. In a few lines:
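HepG2-NTCP A3 cells were pre-incubated 2 h with 3-fold serially diluted compounds, then infected with HBV at 2000 GE/cell with 4% PEG (0.5% DMSO final). After washing on day 1, cells stayed in 2.5% DMSO medium; supernatant HBeAg measured by AlphaLISA on day 8, EC50 versus DMSO controls.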
(In general: Alpha assays give light when donor and acceptor beads are brought close together.)

A word on the EC50: it is the concentration that produces a half-maximal response. As for `CN1[C@H](C2CCCCC2)CN(c2ccccc2)c2cc(OCCc3cn(C)cn3)c(-c3ccc(F)c(C(=O)O)c3)cc2S1(=O)=O` [Example 392], the EC50 was over 1000 nM.

For `CN1[C@H](C2CCC2)CN(c2ccccc2)c2cc(OCC(F)(F)F)c(-c3ccc(F)c(C(=O)O)c3)cc2S1(=O)=O` [Example 464], the EC50 was in the range of 100 to 1000 nM.

For the compound `CC(C)CC1CN(c2ccccc2)c2cc(Cl)c(-c3cc(C(=O)O)n(C)n3)cc2S(=O)(=O)N1C` (centres unmarked) [Example 39], the EC50 lay within 100 to 1000 nM.

With `CN1[C@H](C2CCCCC2)CN(c2ccccc2)c2cc(Cl)c(-c3cccc(C(=O)O)c3O)cc2S1(=O)=O` [Example 148], the 50% effective concentration (EC50) was in the range of 100 to 1000 nM.

Take `CC(C)C[C@@H]1CN(c2ccccc2)c2cc(-c3cccnc3)c(-c3ccc(F)c(C(=O)O)c3)cc2S(=O)(=O)N1C` [Example 580]: the EC50 was under 100 nM.

As to `CC(C)CC1CN(C2CCCC2)c2cc(Cl)c(-c3cccc(C(=O)O)c3)cc2S(=O)(=O)N1C` (centres unmarked) [Example 326, 3-(7-chloro-5-cyclopentyl-3-isobutyl-2-methyl-1,1-dioxido-2,3,4,5-tetrahydrobenzo[f][1,2,5]thiadiazepin-8-yl)benzoic acid], the concentration for a half-maximal effect (EC50) was in the range of 100 to 1000 nM.

Turning to `COC1CCN(c2cc3c(cc2-c2ccc(Cl)c(C(=O)O)c2)S(=O)(=O)N(C)[C@H](C2CCCCC2)CN3c2ccccc2)CC1` [Example 559], the concentration giving a half-maximal response (EC50) fell in the range of 100 to 1000 nM.

In the case of `CN1[C@H](C2CCC2)CN(c2ccccc2)c2cc(OC(C)(C)C)c(-c3ccc(F)c(C(=O)O)c3)cc2S1(=O)=O` [Example 465], the EC50 is 100 to 1000 nM.

In the case of `CN1[C@H](C2CCCCC2)CN(c2ccccc2)c2cc(OCc3ccccc3)c(-c3ccc(F)c(C(=O)O)c3)cc2S1(=O)=O` [Example 332, (R)-5-(7-(benzyloxy)-3-cyclohexyl-2-methyl-1,1-dioxido-5-phenyl-2,3,4,5-tetrahydrobenzo[f][1,2,5]thiadiazepin-8-yl)-2-fluorobenzoic acid], the EC50 was under 100 nM.

Consider `CC(=O)N1CCC(c2cc3c(cc2-c2ccc(F)c(C(=O)O)c2)S(=O)(=O)N(C)[C@H](C2CCCCC2)CN3c2ccccc2)CC1` [Example 597], for which the concentration giving a half-maximal response (EC50) was over 1000 nM.

On to `CN1[C@H](C2CCCCC2)CN(c2ccccc2)c2cc(OCc3cccc(OC(F)(F)F)c3)c(-c3cc(F)c(C(=O)O)s3)cc2S1(=O)=O` [Example 511], for which the concentration for a half-maximal effect (EC50) was 100 to 1000 nM.

Consider `CN1[C@H](C2CCCCC2)CN(c2ccccc2)c2cc(Cl)c(-c3cccc(C(=O)O)n3)cc2S1(=O)=O` [Example 138, (R)-6-(7-chloro-3-cyclohexyl-2-methyl-1,1-dioxido-5-phenyl-2,3,4,5-tetrahydrobenzo[f][1,2,5]thiadiazepin-8-yl)picolinic acid], for which the EC50 lay within 100 to 1000 nM.

For the compound `CC(C)C[C@@H]1CN(c2ccccc2)c2cc(N3CCCCC3)c(-c3ccc(Cl)c(C(=O)O)c3)cc2S(=O)(=O)N1C` [Example 552], the EC50 is under 100 nM.

With `CN1[C@H](C2CCCCC2)CN(c2ccccc2)c2cc(C3CCN(C(=O)OC(C)(C)C)C3)c(-c3ccc(F)c(C(=O)O)c3)cc2S1(=O)=O` (some centres unmarked) [Example 593], the EC50 lay in the range of 100 to 1000 nM.

Consider `CC(C)C[C@@H]1CN(c2ccccc2)c2cc(-c3cccc4ncoc34)c(-c3ccc(F)c(C(=O)O)c3)cc2S(=O)(=O)N1C` [Example 578], for which the EC50 was 100 to 1000 nM.

Take `CN1[C@H](C2CCCCC2)CNc2cc(-c3ccoc3)c(-c3ccc(F)c(C(=O)O)c3)cc2S1(=O)=O` [Example 571]: the concentration for a half-maximal effect (EC50) fell in the range of 100 to 1000 nM.

`CC(C)C[C@@H]1CN(c2ccccc2)c2cc(Cl)c(-c3ccc4[nH]cc(C(=O)O)c4c3)cc2S(=O)(=O)N1C` [Example 212]: the EC50 was over 1000 nM.

Take `CSc1cc2c(cc1-c1cccc(C(=O)O)c1)S(=O)(=O)N1CC(C)(C)CC1CN2c1ccccc1` (centres unmarked) [Example 19]: the EC50 fell in the range of 100 to 1000 nM.

`CC(C)C[C@@H]1CN(c2ccccc2)c2cc(Oc3ccccc3Cl)c(-c3ccc(F)c(C(=O)O)c3)cc2S(=O)(=O)N1C` [Example 431]: the EC50 is under 100 nM.

Turning to `CC(C)C[C@@H]1CN(C2CC(F)(F)C2)c2cc(Oc3ccccc3F)c(-c3ccc(F)c(C(=O)O)c3)cc2S(=O)(=O)N1C` [Example 466, (R)-5-(5-(3,3-difluorocyclobutyl)-7-(2-fluorophenoxy)-3-isobutyl-2-methyl-1,1-dioxido-2,3,4,5-tetrahydrobenzo[f][1,2,5]thiadiazepin-8-yl)-2-fluorobenzoic acid], the EC50 was 100 to 1000 nM.

With `C[C@H](OC(C)(C)C)[C@@H]1CN(c2ccccc2)c2cc(Cl)c(-c3ccc(F)c(C(=O)O)c3)cc2S(=O)(=O)N1C` [Example 91], the EC50 was over 1000 nM.

As for `CC(C)C[C@@H]1CN(c2ccccc2)c2cc(OC(C)(C)c3ccccc3)c(-c3ccc(Cl)c(C(=O)O)c3)cc2S(=O)(=O)N1C` [Example 455], the EC50 lay in the range of 100 to 1000 nM.

Turning to `CN1[C@H](C2CCCCC2)CN(c2ccccc2)c2cc(C3CCN(C(=O)C(F)(F)F)C3)c(-c3ccc(F)c(C(=O)O)c3)cc2S1(=O)=O` (some centres unmarked) [Example 601], the EC50 fell in the range of 100 to 1000 nM.

Take `CN1[C@H](C2CCCCC2)CN(c2ccccc2)c2cc(Cl)c(-c3cc(C(=O)O)c4nccn4c3)cc2S1(=O)=O` [Example 211]: the 50% effective concentration (EC50) lay in the range of 100 to 1000 nM.

Regarding `CN1[C@H](C2CCCCC2)CN(c2ccccc2)c2cc(OCc3ccccc3C#N)c(-c3cc(F)c(C(=O)O)s3)cc2S1(=O)=O` [Example 510], the half-maximal effective concentration (EC50) was under 100 nM.

For `CC(C)C[C@@H]1CN(c2ccccc2)c2cc(OCc3cocn3)c(-c3ccc(F)c(C(=O)O)c3)cc2S(=O)(=O)N1C` [Example 462], the EC50 was under 100 nM.

For `CN1[C@H](C2CCCCC2)CN(c2ccccc2)c2cc(OCc3ccsc3Cl)c(-c3cc(F)c(C(=O)O)s3)cc2S1(=O)=O` [Example 489], the EC50 was under 100 nM.

Take `CN1C[C@@H](C2CCCCC2)N(C)S(=O)(=O)c2cc(-c3ccc(F)c(C(=O)O)c3)c(-c3ccccc3F)cc21` [Example 581]: the EC50 was 100 to 1000 nM.

In the case of `CC(C)C[C@@H]1CN(c2ccccc2)c2cc(Oc3ccc(C(F)(F)F)cc3)c(-c3ccc(F)c(C(=O)O)c3)cc2S(=O)(=O)N1C` [Example 426], the EC50 fell in the range of 100 to 1000 nM.

As for `CCC1CN(c2ccccc2)c2cc(Cl)c(-c3ccc(F)c(C(=O)O)c3)cc2S(=O)(=O)N1C` (centres unmarked) [Example 45], the EC50 was over 1000 nM.

Turning to `COc1cc(-c2cc3c(cc2Cl)N(c2ccccc2)C[C@@H](C2CCCCC2)N(C)S3(=O)=O)sc1C(=O)O` [Example 118], the EC50 is under 100 nM.

As for `CN1[C@H](C(C)(C)C)CN(c2ccccc2)c2cc(Cl)c(-c3ccc(F)c(C(=O)O)c3)cc2S1(=O)=O` [Example 85, (R)-5-(3-(tert-butyl)-7-chloro-2-methyl-1,1-dioxido-5-phenyl-2,3,4,5-tetrahydrobenzo[f][1,2,5]thiadiazepin-8-yl)-2-fluorobenzoic acid], the EC50 was under 100 nM.

Consider `CN1[C@H](C2CCCCC2)CN(c2ccccc2)c2cc(Cl)c(-c3cc4c(c(C(=O)O)c3)OC(F)(F)O4)cc2S1(=O)=O` [Example 154, (R)-6-(7-chloro-3-cyclohexyl-2-methyl-1,1-dioxido-5-phenyl-2,3,4,5-tetrahydrobenzo[f][1,2,5]thiadiazepin-8-yl)-2,2-difluorobenzo[d][1,3]dioxole-4-carboxylic acid], for which the EC50 lay in the range of 100 to 1000 nM.

Turning to `CN1[C@H](C2CCCCC2)CN(c2ccccc2)c2cc(Oc3cc(F)cc(F)c3)c(-c3ccc(F)c(C(=O)O)c3)cc2S1(=O)=O` [Example 405], the EC50 was under 100 nM.

Consider `CN1[C@H](C2CCCCC2)CN(c2ccccc2)c2cc(Cl)c(-c3cncc(C(=O)O)c3)cc2S1(=O)=O` [Example 136, (R)-5-(7-chloro-3-cyclohexyl-2-methyl-1,1-dioxido-5-phenyl-2,3,4,5-tetrahydrobenzo[f][1,2,5]thiadiazepin-8-yl)nicotinic acid], for which the EC50 is over 1000 nM.

Consider `CN1[C@H](C2CCCCC2)CN(c2ccccc2)c2cc(OCCCC3CCN(C(=O)OC(C)(C)C)CC3)c(-c3ccc(F)c(C(=O)O)c3)cc2S1(=O)=O` [Example 368], for which the concentration giving a half-maximal response (EC50) was under 100 nM.

Regarding `CN1[C@H](C2CCCCC2)CN(c2ccccc2)c2cc(Cl)c(-c3cc(C(=O)O)ccc3Cl)cc2S1(=O)=O` [Example 151, (R)-4-chloro-3-(7-chloro-3-cyclohexyl-2-methyl-1,1-dioxido-5-phenyl-2,3,4,5-tetrahydrobenzo[f][1,2,5]thiadiazepin-8-yl)benzoic acid], the 50% effective concentration (EC50) was in the range of 100 to 1000 nM.

`CN1[C@H](C2CCCCC2)CN(c2ccncc2)c2cc(Cl)c(-c3ccc(F)c(C(=O)O)c3)cc2S1(=O)=O` [Example 283]: the EC50 is over 1000 nM.

As to `CN1[C@H](C2CCCCC2)CN(c2ccccc2)c2cc(OCCOC(C)(C)C)c(-c3cc(F)c(C(=O)O)s3)cc2S1(=O)=O` [Example 495], the EC50 was under 100 nM.

`CC(C)C[C@@H]1CN(c2ccccc2)c2cc(OCc3ccccn3)c(-c3ccc(F)c(C(=O)O)c3)cc2S(=O)(=O)N1C` [Example 459]: the concentration for a half-maximal effect (EC50) is under 100 nM.

With `CC[C@@H](C)[C@@H]1CN(c2ccccc2)c2cc(Cl)c(-c3ccc(F)c(C(=O)O)c3)cc2S(=O)(=O)N1C` [Example 68], the 50% effective concentration (EC50) is under 100 nM.

Take `CC(Oc1cc2c(cc1-c1ccc(F)c(C(=O)O)c1)S(=O)(=O)N(C)[C@H](C1CCCCC1)CN2c1ccccc1)c1ccsc1` (some centres unmarked) [Example 337]: the concentration for a half-maximal effect (EC50) is under 100 nM.

Regarding `CN1[C@H](C2CCCC2)CN(c2ccccc2)c2cc(Cl)c(-c3ccc(Cl)c(C(=O)O)c3)cc2S1(=O)=O` [Example 67], the concentration giving a half-maximal response (EC50) was under 100 nM.

For the compound `CC(=O)NS(=O)(=O)c1cc(-c2cc3c(cc2Cl)N(c2ccccc2)C[C@@H](C2CCCCC2)N(C)S3(=O)=O)ccc1Cl` [Example 224], the concentration for a half-maximal effect (EC50) is under 100 nM.

Turning to `CC(C)C[C@@H]1CN(C2CC3(CCC3)C2)c2cc(Oc3ccccc3F)c(-c3ccc(F)c(C(=O)O)c3)cc2S(=O)(=O)N1C` [Example 467], the EC50 was in the range of 100 to 1000 nM.

As to `CN1[C@H](C2CCCCC2)CN(c2ccccc2)c2cc(OCC3CCC3)c(-c3ccc(F)c(C(=O)O)c3)cc2S1(=O)=O` [Example 364], the half-maximal effective concentration (EC50) is under 100 nM.

Consider `CCCC[C@H]1CN(c2ccccc2)c2cc(N3CCCC3)c(-c3ccc(F)c(C(=O)O)c3)cc2S(=O)(=O)N1C` [Example 543], for which the EC50 is over 1000 nM.
